The assay addresses T1, Can1 (CRISPR ancillary nuclease 1; TTHB155) (Thermus thermophilus, UniProt Q53W14).
T1 construct: full length 636 aa plus C-terminal Leu-Glu; synthetic gene, E. coli C43 (DE3) (SeMet protein in B834), N-terminal His tag cut with TEV; monomer
T1 sequence (Q53W14 1-636): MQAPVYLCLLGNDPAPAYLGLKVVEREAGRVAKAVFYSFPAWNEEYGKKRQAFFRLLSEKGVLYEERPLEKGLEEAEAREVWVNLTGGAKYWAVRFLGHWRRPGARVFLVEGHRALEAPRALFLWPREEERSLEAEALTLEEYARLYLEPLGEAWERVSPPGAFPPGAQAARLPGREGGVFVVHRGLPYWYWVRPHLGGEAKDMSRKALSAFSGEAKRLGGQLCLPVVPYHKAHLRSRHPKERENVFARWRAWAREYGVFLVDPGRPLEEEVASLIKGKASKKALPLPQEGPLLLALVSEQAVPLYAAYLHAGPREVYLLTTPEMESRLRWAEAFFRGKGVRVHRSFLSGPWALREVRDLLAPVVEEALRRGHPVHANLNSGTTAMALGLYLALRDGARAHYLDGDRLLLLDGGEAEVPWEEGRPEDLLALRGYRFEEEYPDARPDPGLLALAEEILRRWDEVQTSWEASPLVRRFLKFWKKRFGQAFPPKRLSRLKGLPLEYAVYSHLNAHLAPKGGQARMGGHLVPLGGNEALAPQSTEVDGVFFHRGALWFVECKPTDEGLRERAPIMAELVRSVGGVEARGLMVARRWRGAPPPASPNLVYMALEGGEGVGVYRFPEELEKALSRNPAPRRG
As to the kind of experiment: X-ray crystal structure ([…] A); also EMSA with […]-labelled cA4, SAXS and nuclease activation. The following applies: SeMet protein, 1:2 molar ratio with cA4, pH 6.5; site between the two CARF domains; activator. It is filed as binding. (In general: A gel shift assay detects complexes by their altered migration in electrophoresis.)

In the case of `Nc1ncnc2c1ncn2[C@@H]1O[C@@H]2COP(=O)(O)O[C@H]3[C@@H](O)[C@H](n4cnc5c(N)ncnc54)O[C@@H]3COP(=O)(O)O[C@H]3[C@@H](O)[C@H](n4cnc5c(N)ncnc54)O[C@@H]3COP(=O)(O)O[C@H]3[C@@H](O)[C@H](n4cnc5c(N)ncnc54)O[C@@H]3COP(=O)(O)O[C@H]2[C@H]1O` [cA4], the “X-ray crystal structure (1.83 A); also EMSA with 32P-labelled cA4, SAXS and nucl” value is “A molecule of cA4 sits at the interface”.

The values above are taken from paper PMC6981274, “Structure and mechanism of a Type III CRISPR defence DNA nuclease activated by cyclic oligoadenylate” (Nature Communications, 2020).
